In patent US9981950B2, “Triazoles as NR2B receptor inhibitors” (Janssen Pharmaceuticals, Inc., priority 2014, dated 2018):

What was measured:
[1] = target: T1, rat NR1/NR2B receptor (Rattus norvegicus (Rat), UniProt P35439+Q00960); experiment: RRNR2BB: inhibition of specific binding to the rat NR1/NR2B receptor; details: [3H]-Ifenprodil binding, rat brain membranes, Hill-plot 2-parameter-model
Description: RRNR2BB—Inhibition of Specific Binding to the Rat NR1/NR2B Receptor
(§1) Male Wistar rats (180 to 200 g) were killed by suffocation in a CO2 chamber for two minutes. Whole brains without cerebellum were removed and dissected on ice, placed into closed vials and stored at −70° C.
Membrane fractions were prepared and tested using standard techniques. At the time of the assay, 1 g of the brains were placed into 25 ml of 50 mM Tris/10 mM EDTA buffer, pH=7.1, (25 vol. per g of original tissue) and was homogenized for 30 sec at 20000 U/min with an Ultraturrax T25 (Jahnke & Kunkel, IKA-Labortechnik, Staufen, Germany). The homogenate was centrifuged at 4° C. for 10 min at 48000 g (OPTIMA L-70, Beckman, Palo Alto, Calif. 94304, USA). The supernatant was discarded and the pellet was homogenized on ice for 30 sec at 20000 U/min with an Ultraturrax and again centrifuged at 48000 g for 30 minutes at 4° C. The resultant pellet was resuspended in 25 ml of 50 mM Tris/10 mM EDTA buffer, homogenized for 30 sec with an Ultraturrax, aliquoted, frozen at −70° C. and stored until use
(§2) After thawing on the day of the assay, a 5 ml membrane aliquote was centrifuged at 48000 g for 30 min at 4° C. The pellet was resuspended in 5 ml of 5 mM Tris/1 mM EDTA buffer, pH=7.4, homogenized for 30 sec at 20000 U/min with an Ultraturrax and centrifuged at 48000 g for 30 min at 4° C. This step was repeated twice. The final pellet was homogenized in 5 ml of 5 mM Tris/mM EDTA buffer at 4° C. with an Ultraturrax and used for the Ifenprodil-binding assay.
Nonspecific binding was estimated in the presence of 10 M CP101.606. The samples were incubated for 60 min. at 4° C.
(§3) Binding was terminated by filtration of the incubated membrane preparations using Filtermat B (Pharmacia, Uppsala Sweden) and a Micro Cell Harvester (Skatron, Lier, Norway). The Filtermat B had been presoaked with 1% polyethylenimine and carefully washed with 50 nM Tris/HCl-buffer pH=7.7 after the filtration to separate free and bound radioactivity.
For pipetting of the incubation mixture the robot Biomek2000 (Fa. Beckman) was used.
The IC50 values in the tables below were determined using the Hill-plot, 2-parameter-model.

[2] = target: hERG-receptor (Homo sapiens (Human), UniProt Q12809); experiment: HERGBD: inhibition of specific 3H-Dofetilide binding to the hERG-receptor; details: HEK cell membranes with human ERG, Hill-plot 2-parameter-model
Sequence of hERG-receptor (Q12809 whole entry): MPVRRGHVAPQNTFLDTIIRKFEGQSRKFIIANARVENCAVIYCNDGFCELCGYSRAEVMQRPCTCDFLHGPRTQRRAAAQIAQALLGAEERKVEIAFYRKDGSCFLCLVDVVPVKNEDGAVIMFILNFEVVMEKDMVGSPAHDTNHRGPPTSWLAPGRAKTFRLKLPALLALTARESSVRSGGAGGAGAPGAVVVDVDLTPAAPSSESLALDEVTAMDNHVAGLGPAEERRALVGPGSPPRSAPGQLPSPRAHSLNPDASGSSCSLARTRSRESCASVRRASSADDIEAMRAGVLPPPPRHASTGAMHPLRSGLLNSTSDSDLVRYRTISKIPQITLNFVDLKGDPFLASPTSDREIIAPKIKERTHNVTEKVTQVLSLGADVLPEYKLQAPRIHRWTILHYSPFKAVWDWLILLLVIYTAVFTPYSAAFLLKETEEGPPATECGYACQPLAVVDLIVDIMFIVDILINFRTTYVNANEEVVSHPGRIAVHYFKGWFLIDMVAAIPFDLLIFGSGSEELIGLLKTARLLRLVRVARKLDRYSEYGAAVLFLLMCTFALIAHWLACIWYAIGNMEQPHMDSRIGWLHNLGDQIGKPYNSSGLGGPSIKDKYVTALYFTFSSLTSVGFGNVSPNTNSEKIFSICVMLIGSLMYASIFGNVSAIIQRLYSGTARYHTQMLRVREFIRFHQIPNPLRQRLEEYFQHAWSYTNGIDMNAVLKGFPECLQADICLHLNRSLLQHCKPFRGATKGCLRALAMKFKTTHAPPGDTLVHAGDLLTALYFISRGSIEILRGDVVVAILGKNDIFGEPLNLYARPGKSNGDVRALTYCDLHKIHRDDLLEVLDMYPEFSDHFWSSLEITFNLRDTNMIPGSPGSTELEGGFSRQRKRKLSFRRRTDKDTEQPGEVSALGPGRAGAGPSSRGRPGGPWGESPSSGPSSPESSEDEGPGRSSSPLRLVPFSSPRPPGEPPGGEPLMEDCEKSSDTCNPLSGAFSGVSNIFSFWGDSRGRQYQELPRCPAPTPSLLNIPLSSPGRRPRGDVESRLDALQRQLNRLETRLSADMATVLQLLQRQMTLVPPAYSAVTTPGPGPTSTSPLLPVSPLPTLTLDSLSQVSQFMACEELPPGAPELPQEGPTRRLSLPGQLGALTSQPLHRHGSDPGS
Description: Inhibition of Specific Binding to the hERG-Receptor (HERGBD)
A HEK cell line with stable transfected human ERG receptor was used for the assay. The cells were grown adherently and maintained in DULBECCOS' MEM medium with 10% FBS, 1% non-essential amino acids, 1% Penicillin/Streptomycin and 400 μg/ml G418 (Calbiochem).
For binding assays and membrane preparations the cell culture medium was removed, cells were washed with PBS. Crude membranes for radioligand binding experiments were prepared by scraping the cells off the dishes in ice cold 20 mM HEPES/0.1 mM KCl/pH 7.2. The cell suspension was homogenized on ice (Ultra turrax, 3×20 sec.) and the homogenate was spun for 10 min (1° C., 1000 g, OPTIMA, SW28, 2800 U/min). The supernatant was than centrifuged for 40 min at 100000 g (1° C., OPTIMA, SW28, 23000 U/min). The membrane pellet was resuspended in 20 mM HEPES/0.1 mM KCl/pH 7.2, frozen and stored at −80° C.
After thawing on the day of the assay, the membrane suspension was diluted further with 20 mM HEPES/0.1 mM KCl/pH 7.2.
The incubation mixture of 200 μl contained 1.5 nmol/l 3H-Dofetilide, optimized amount of membrane preparation, 20 mM HEPES/0.1 mM KCl/(pH 7.2) and inhibitor in 1% DMSO. Nonspecific binding was estimated in the presence of […] Dofetilide. The samples were incubated for 90 min. at RT.
as §3, with “0.05 M” for “50 nM”, “radioactivity. The filters were counted in a scintillation counter (Betaplate 1205, Berthold, Wildbad, Germany) in order to determine the specific binding of [^3H]-Dofetilide.” for “radioactivity.”
The optimal amount of membrane preparation in the assay was determined and optimized for each membrane preparation separately in front of using the membranes in compound testing.
For pipetting of the incubation mixture we routinely use the robot Biomek2000 (Fa. Beckman).

[3] = target: T1, rat NR1/NR2B receptor; experiment: NR2B binding assay: inhibition of specific [3H]-Ifenprodil binding to the rat NR1/NR2B receptor; details: rat brain membranes, Hill-plot 2-parameter-model
Description: Inhibition of Specific Binding to the Rat NR1/NR2B Receptor
as §1
Membrane fractions were prepared and tested using standard techniques. At the time of the assay, 1 g of the brains was placed into 25 ml of 50 mM Tris/10 mM EDTA buffer, pH 7.1, (25 vol. per g of original tissue) and homogenized for 30 sec at 20000 rpm with an Ultraturrax T25 (Jahnke & Kunkel, IKA-Labortechnik, Staufen, Germany). The homogenate was centrifuged at 4° C. for 10 min at 48000 g (OPTIMA L-70, Beckman, Palo Alto, Calif. 94304, USA).
The supernatant was discarded and the pellet was homogenized on ice for 30 sec at 20000 rpm with an Ultraturrax and again centrifuged at 48000 g for 30 minutes at 4° C. The resulted pellet was resuspended in 25 ml of 50 mM Tris/10 mM EDTA buffer, homogenized for 30 sec with an Ultraturrax, aliquoted, frozen at −70° C. and stored until use.
as §2, with “aliquot” for “aliquote”, “pH 7.4,” for “pH=7.4,”, “rpm” for “U/min”, “This” for “This step”, “Tris/l mM” for “Tris/mM”, “assay as described in the following.” for “assay.”
Nonspecific binding was estimated in the presence of […] CP101.606. The samples were incubated for 60 min. at 4° C.
as §3, with “The incubation” for “Binding”, “the” for “the incubated”, “polyethylene imine” for “polyethylenimine”, “mM” for “nM”, “pH 7.7” for “pH=7.7”
The optimal amount of membrane preparation in the assay had been determined and optimized for each membrane preparation separately before the test.
For pipetting of the incubation mixture we routinely used the robot Biomek2000 (Fa. Beckman).
For determination of IC50 values the Hill-plot, 2-parameter-model was used.

T1 sequence (Q00960 27-1482, other chains not shown): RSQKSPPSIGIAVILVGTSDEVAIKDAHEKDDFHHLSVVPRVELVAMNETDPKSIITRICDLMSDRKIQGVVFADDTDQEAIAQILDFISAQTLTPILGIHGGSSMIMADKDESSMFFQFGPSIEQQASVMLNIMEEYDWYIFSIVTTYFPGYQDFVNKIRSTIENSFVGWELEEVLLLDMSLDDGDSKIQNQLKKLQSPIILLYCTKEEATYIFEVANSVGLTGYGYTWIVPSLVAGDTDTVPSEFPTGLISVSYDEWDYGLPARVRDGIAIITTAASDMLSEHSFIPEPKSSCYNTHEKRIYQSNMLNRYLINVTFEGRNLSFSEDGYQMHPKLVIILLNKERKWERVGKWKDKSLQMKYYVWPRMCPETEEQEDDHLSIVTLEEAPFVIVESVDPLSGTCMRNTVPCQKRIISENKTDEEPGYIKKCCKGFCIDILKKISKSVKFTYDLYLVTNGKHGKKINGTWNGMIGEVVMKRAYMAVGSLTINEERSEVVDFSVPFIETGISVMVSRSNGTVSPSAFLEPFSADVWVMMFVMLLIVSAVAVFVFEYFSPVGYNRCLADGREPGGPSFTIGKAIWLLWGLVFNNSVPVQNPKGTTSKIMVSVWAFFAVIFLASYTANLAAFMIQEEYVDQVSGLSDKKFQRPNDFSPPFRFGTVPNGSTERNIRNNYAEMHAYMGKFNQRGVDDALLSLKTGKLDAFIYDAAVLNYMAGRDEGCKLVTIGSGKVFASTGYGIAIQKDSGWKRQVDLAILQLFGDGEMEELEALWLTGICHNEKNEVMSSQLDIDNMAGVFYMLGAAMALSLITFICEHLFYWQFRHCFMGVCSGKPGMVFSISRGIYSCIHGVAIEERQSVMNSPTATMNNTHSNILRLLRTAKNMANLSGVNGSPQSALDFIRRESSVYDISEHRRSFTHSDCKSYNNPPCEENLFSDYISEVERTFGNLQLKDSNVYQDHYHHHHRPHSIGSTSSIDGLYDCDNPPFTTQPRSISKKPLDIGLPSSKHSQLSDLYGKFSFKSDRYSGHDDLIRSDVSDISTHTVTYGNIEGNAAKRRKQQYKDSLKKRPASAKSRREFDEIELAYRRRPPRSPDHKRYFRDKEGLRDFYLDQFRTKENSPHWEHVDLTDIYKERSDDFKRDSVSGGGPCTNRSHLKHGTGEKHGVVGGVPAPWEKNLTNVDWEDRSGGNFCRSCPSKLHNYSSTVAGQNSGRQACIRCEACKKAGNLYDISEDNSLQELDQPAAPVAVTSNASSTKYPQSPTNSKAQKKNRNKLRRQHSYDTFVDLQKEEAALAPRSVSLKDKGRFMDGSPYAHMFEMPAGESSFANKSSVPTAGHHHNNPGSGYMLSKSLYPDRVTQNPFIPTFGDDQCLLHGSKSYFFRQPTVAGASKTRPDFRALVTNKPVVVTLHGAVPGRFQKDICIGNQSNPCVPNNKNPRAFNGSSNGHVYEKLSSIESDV

Row | IC50 [1] | IC50 [3] | Compound | IC50 [2]
1 | 11.9 nM | 11.9 nM | Cc1nccn1Cc1cn(-c2ccc(Cl)c(C(F)(F)F)c2)nn1 [Example 56, 1-(4-Chloro-3-trifluoromethyl-phenyl)-4-(2-methyl-imidazol-1-ylmethyl)-1H-[1,2,3]triazole] | 6460 nM
2 | 7.21 nM | 7.21 nM | Cc1nccn1Cc1cn(-c2cccc(OC(F)(F)F)c2)nn1 [Example 57, 4-(2-Methyl-imidazol-1-ylmethyl)-1-(3-trifluoromethoxy-phenyl)-1H-[1,2,3]triazole] | 8590 nM
3 | 17.4 nM | 17.4 nM | Cc1nccn1Cc1cn(-c2cccc(C(F)(F)F)c2)nn1 [Example 58, 4-(2-Methyl-imidazol-1-ylmethyl)-1-(3-trifluoromethyl-phenyl)-1H-[1,2,3]triazole] | 15000 nM
4 | 46 nM | 46 nM | Cc1nccn1Cc1cn(-c2ccc(C(F)(F)F)cc2)nn1 [Example 59, 4-(2-Methyl-imidazol-1-ylmethyl)-1-(4-trifluoromethyl-phenyl)-1H-[1,2,3]triazole] | 6270 nM
5 | 3320 nM | 3320 nM | COc1cc(F)ccc1-n1cc(Cn2ccnc2C2CC2)nn1 [Example 62, 4-(2-Cyclopropyl-imidazol-1-ylmethyl)-1-(4-fluoro-2-methoxy-phenyl)-1H-[1,2,3]triazole] | 45900 nM
6 | 87.1 nM | 87.1 nM | Cc1ccc(-n2cc(Cn3ccnc3C3CC3)nn2)cc1F [Example 63, 4-(2-Cyclopropyl-imidazol-1-ylmethyl)-1-(3-fluoro-4-methyl-phenyl)-1H-[1,2,3]triazole] | 11200 nM
7 | 38 nM | 38 nM | FC(F)(F)c1cc(-n2cc(Cn3ccnc3C3CC3)nn2)ccc1Cl [Example 66, 1-(4-Chloro-3-trifluoromethyl-phenyl)-4-(2-cyclopropyl-imidazol-1-ylmethyl)-1H-[1,2,3]triazole] | 3540 nM
8 | 34.5 nM | 34.5 nM | FC(F)(F)Oc1cccc(-n2cc(Cn3ccnc3C3CC3)nn2)c1 [Example 67, 4-(2-Cyclopropyl-imidazol-1-ylmethyl)-1-(3-trifluoromethoxy-phenyl)-1H-[1,2,3]triazole] | 2550 nM
9 | 91.6 nM | 91.6 nM | FC(F)(F)c1cccc(-n2cc(Cn3ccnc3C3CC3)nn2)c1 [Example 68, 4-(2-Cyclopropyl-imidazol-1-ylmethyl)-1-(3-trifluoromethyl-phenyl)-1H-[1,2,3]triazole] | 5120 nM
10 | 173 nM | 173 nM | FC(F)(F)c1ccc(-n2cc(Cn3ccnc3C3CC3)nn2)cc1 [Example 69, 4-(2-Cyclopropyl-imidazol-1-ylmethyl)-1-(4-trifluoromethyl-phenyl)-1H-[1,2,3]triazole] | 4410 nM
11 | 1.84 nM | 1.84 nM | CCc1nccn1Cc1cn(-c2ccc(Cl)c(C)c2)nn1 [Example 70, 1-(4-Chloro-3-methyl-phenyl)-4-(2-ethyl-imidazol-1-ylmethyl)-1H-[1,2,3]triazole] | 3920 nM

The next lines start with the compound.

Row | Compound | IC50 [1] | IC50 [3] | IC50 [2]
12 | CCCCc1nccn1Cc1cn(-c2ccc(F)c(Cl)c2)nn1 [Example 45, 4-(2-Butyl-imidazol-1-ylmethyl)-1-(3-chloro-4-fluoro-phenyl)-1H-[1,2,3]triazole] | 7.68 nM | 7.68 nM | 539 nM
13 | Cc1nccn1Cc1cn(-c2ccc(Cl)cc2Cl)nn1 [Example 49, 1-(2,4-Dichloro-phenyl)-4-(2-methyl-imidazol-1-ylmethyl)-1H-[1,2,3]triazole] | 778 nM | 778 nM | 4530 nM
14 | Cc1nccn1Cc1cn(-c2ccc(Cl)c(F)c2)nn1 [Example 50, 1-(4-Chloro-3-fluoro-phenyl)-4-(2-methyl-imidazol-1-ylmethyl)-1H-[1,2,3]triazole] | 21.2 nM | 21.2 nM | 3390 nM
15 | Cc1nccn1Cc1cn(-c2ccc(F)c(Cl)c2)nn1 [Example 51, 1-(3-Chloro-4-fluoro-phenyl)-4-(2-methyl-imidazol-1-ylmethyl)-1H-[1,2,3]triazole] | 7.01 nM | 7.01 nM | 4970 nM
16 | COc1cc(F)ccc1-n1cc(Cn2ccnc2C)nn1 [Example 52, 1-(4-Fluoro-2-methoxy-phenyl)-4-(2-methyl-imidazol-1-ylmethyl)-1H-[1,2,3]triazole] | 1180 nM | 1180 nM | 41700 nM
17 | Cc1ccc(-n2cc(Cn3ccnc3C)nn2)cc1F [Example 53, 1-(3-Fluoro-4-methyl-phenyl)-4-(2-methyl-imidazol-1-ylmethyl)-1H-[1,2,3]triazole] | 26.5 nM | 26.5 nM | 6410 nM
18 | Cc1cc(-n2cc(Cn3ccnc3C)nn2)ccc1F [Example 54, 1-(4-Fluoro-3-methyl-phenyl)-4-(2-methyl-imidazol-1-ylmethyl)-1H-[1,2,3]triazole] | 5.32 nM | 5.32 nM | 6210 nM
19 | Cc1cc(-n2cc(Cn3ccnc3C)nn2)ccc1Cl [Example 55, 1-(4-Chloro-3-methyl-phenyl)-4-(2-methyl-imidazol-1-ylmethyl)-1H-[1,2,3]triazole] | 1.64 nM | 1.64 nM | 4710 nM
